Test results published in PubChem BioAssay (NCI).
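Five compound concentrations were applied to cells in 96-well plates for 48 hours; endpoints were derived by simple linear interpolation of the resulting dose-response curve. TGI denotes the concentration required for complete inhibition of growth.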

Legend:
Assay in all cases: NCI anticancer screen, dose series, 48 h
786-0 renal = system: 786-0 renal
A498 renal = system: A498 renal
A549 NSCLC = system: A549 NSCLC
ACHN renal = system: ACHN renal
BT-549 breast = system: BT-549 breast
CAKI-1 renal = system: CAKI-1 renal
DU-145 prostate = system: DU-145 prostate
EKVX NSCLC = system: EKVX NSCLC
HCC-2998 colon = system: HCC-2998 colon
HCT-116 colon = system: HCT-116 colon
HCT-15 colon = system: HCT-15 colon
HL-60(TB) leukemia = system: HL-60(TB) leukemia
HOP-62 NSCLC = system: HOP-62 NSCLC
HOP-92 NSCLC = system: HOP-92 NSCLC
HS 578T breast = system: HS 578T breast
HT29 colon = system: HT29 colon
IGROV1 ovarian = system: IGROV1 ovarian
K-562 leukemia = system: K-562 leukemia
KM12 colon = system: KM12 colon
LOX IMVI melanoma = system: LOX IMVI melanoma
M14 melanoma = system: M14 melanoma
MCF7 breast = system: MCF7 breast
MDA-MB-231 breast = system: MDA-MB-231 breast
MDA-MB-435 = system: MDA-MB-435
MDA-N = system: MDA-N
MOLT-4 leukemia = system: MOLT-4 leukemia
NCI-H226 lung = system: NCI-H226 lung
NCI-H23 lung = system: NCI-H23 lung
NCI-H460 lung = system: NCI-H460 lung
NCI-H522 lung = system: NCI-H522 lung
NCI/ADR-RES ovarian = system: NCI/ADR-RES ovarian
OVCAR-3 ovarian = system: OVCAR-3 ovarian
OVCAR-4 ovarian = system: OVCAR-4 ovarian
OVCAR-5 ovarian = system: OVCAR-5 ovarian
OVCAR-8 ovarian = system: OVCAR-8 ovarian
PC-3 prostate = system: PC-3 prostate
RPMI-8226 leukemia = system: RPMI-8226 leukemia
RXF 393 renal = system: RXF 393 renal
SF-268 CNS = system: SF-268 CNS
SF-295 CNS = system: SF-295 CNS
SF-539 CNS = system: SF-539 CNS
SK-MEL-2 melanoma = system: SK-MEL-2 melanoma
SK-MEL-28 melanoma = system: SK-MEL-28 melanoma
SK-MEL-5 melanoma = system: SK-MEL-5 melanoma
SNB-75 CNS = system: SNB-75 CNS
SR leukemia = system: SR leukemia
SW-620 colon = system: SW-620 colon
T-47D breast = system: T-47D breast
TK-10 renal = system: TK-10 renal
U251 CNS = system: U251 CNS
UACC-257 melanoma = system: UACC-257 melanoma
UO-31 renal = system: UO-31 renal
CCRF-CEM leukemia = system: CCRF-CEM leukemia
COLO 205 colon = system: COLO 205 colon
MALME-3M melanoma = system: MALME-3M melanoma
SK-OV-3 ovarian = system: SK-OV-3 ovarian
SN12C renal = system: SN12C renal
SNB-19 CNS = system: SNB-19 CNS

**Q.** With `C=CCC1(O)c2cccc(O)c2C(=O)c2cccc(O)c21` (configuration not stated) as the molecule, how does the TGI (786-0 renal) read?
**A.** 46.1 µM

**Q.** What about the TGI (A498 renal) of the same molecule?
**A.** 37 µM

**Q.** And the TGI (A549 NSCLC)?
**A.** 88.1 µM

**Q.** What about the TGI (ACHN renal) of the same molecule?
**A.** 69.2 µM

**Q.** And the TGI (BT-549 breast)?
**A.** 47.4 µM

**Q.** What about the TGI (CAKI-1 renal) of the same molecule?
**A.** 68.2 µM

**Q.** What about the TGI (DU-145 prostate) of the same molecule?
**A.** 54.5 µM

**Q.** And the TGI (EKVX NSCLC)?
**A.** 60.1 µM

**Q.** And the TGI (HCC-2998 colon)?
**A.** 30.3 µM

**Q.** What about the TGI (HCT-116 colon) of the same molecule?
**A.** 31.1 µM

**Q.** And the TGI (HCT-15 colon)?
**A.** 51.8 µM

**Q.** What about the TGI (HL-60(TB) leukemia) of the same molecule?
**A.** 34.2 µM

**Q.** What about the TGI (HOP-62 NSCLC) of the same molecule?
**A.** 49.7 µM

**Q.** What about the TGI (HOP-92 NSCLC) of the same molecule?
**A.** 42.3 µM

**Q.** And the TGI (HS 578T breast)?
**A.** 41.8 µM

**Q.** What about the TGI (HT29 colon) of the same molecule?
**A.** 64.1 µM

**Q.** What about the TGI (IGROV1 ovarian) of the same molecule?
**A.** > 100 µM

**Q.** What about the TGI (K-562 leukemia) of the same molecule?
**A.** > 100 µM

**Q.** What about the TGI (KM12 colon) of the same molecule?
**A.** 85 µM

**Q.** And the TGI (LOX IMVI melanoma)?
**A.** 30.9 µM

**Q.** And the TGI (M14 melanoma)?
**A.** 32 µM

**Q.** And the TGI (MCF7 breast)?
**A.** 76.9 µM

**Q.** What about the TGI (MDA-MB-231 breast) of the same molecule?
**A.** 53.4 µM

**Q.** What about the TGI (MDA-MB-435) of the same molecule?
**A.** 50.8 µM

**Q.** And the TGI (MDA-N)?
**A.** 31.1 µM

**Q.** What about the TGI (MOLT-4 leukemia) of the same molecule?
**A.** 53.6 µM

**Q.** What about the TGI (NCI-H226 lung) of the same molecule?
**A.** 74.3 µM

**Q.** And the TGI (NCI-H23 lung)?
**A.** 31.7 µM

**Q.** And the TGI (NCI-H460 lung)?
**A.** 48 µM

**Q.** And the TGI (NCI-H522 lung)?
**A.** 42 µM

**Q.** What about the TGI (NCI/ADR-RES ovarian) of the same molecule?
**A.** 40.2 µM

**Q.** What about the TGI (OVCAR-3 ovarian) of the same molecule?
**A.** 59.7 µM

**Q.** What about the TGI (OVCAR-4 ovarian) of the same molecule?
**A.** > 100 µM

**Q.** What about the TGI (OVCAR-5 ovarian) of the same molecule?
**A.** > 100 µM

**Q.** And the TGI (OVCAR-8 ovarian)?
**A.** > 100 µM

**Q.** What about the TGI (PC-3 prostate) of the same molecule?
**A.** 47.3 µM

**Q.** And the TGI (RPMI-8226 leukemia)?
**A.** 76.1 µM

**Q.** What about the TGI (RXF 393 renal) of the same molecule?
**A.** 37 µM

**Q.** And the TGI (SF-268 CNS)?
**A.** 85.4 µM

**Q.** What about the TGI (SF-295 CNS) of the same molecule?
**A.** 38.3 µM

**Q.** What about the TGI (SF-539 CNS) of the same molecule?
**A.** > 100 µM

**Q.** What about the TGI (SK-MEL-2 melanoma) of the same molecule?
**A.** 31.1 µM

**Q.** What about the TGI (SK-MEL-28 melanoma) of the same molecule?
**A.** 84.7 µM

**Q.** And the TGI (SK-MEL-5 melanoma)?
**A.** 26.4 µM

**Q.** What about the TGI (SNB-75 CNS) of the same molecule?
**A.** 52 µM

**Q.** And the TGI (SR leukemia)?
**A.** 36.3 µM

**Q.** And the TGI (SW-620 colon)?
**A.** > 100 µM

**Q.** And the TGI (T-47D breast)?
**A.** 30.2 µM

**Q.** And the TGI (TK-10 renal)?
**A.** 73.5 µM

**Q.** And the TGI (U251 CNS)?
**A.** 45.5 µM

**Q.** And the TGI (UACC-257 melanoma)?
**A.** 38.7 µM

**Q.** And the TGI (UO-31 renal)?
**A.** 52.8 µM

**Q.** Which results are given for `CSc1cc(Cl)c(C)cc1S(=O)(=O)NC(=O)NNc1ccccn1`?
**A.** TGI (786-0 renal): > 100 µM; TGI (A498 renal): > 100 µM; TGI (A549 NSCLC): > 100 µM; TGI (ACHN renal): > 100 µM; TGI (CAKI-1 renal): > 100 µM; TGI (CCRF-CEM leukemia): > 100 µM; TGI (COLO 205 colon): > 100 µM; TGI (DU-145 prostate): > 100 µM; TGI (EKVX NSCLC): > 100 µM; TGI (HCC-2998 colon): > 100 µM; TGI (HCT-116 colon): > 100 µM; TGI (HCT-15 colon): > 100 µM; TGI (HOP-62 NSCLC): > 100 µM; TGI (HS 578T breast): > 100 µM; TGI (HT29 colon): > 100 µM; TGI (IGROV1 ovarian): > 100 µM; TGI (K-562 leukemia): > 100 µM; TGI (KM12 colon): > 100 µM; TGI (LOX IMVI melanoma): > 100 µM; TGI (M14 melanoma): > 100 µM; TGI (MALME-3M melanoma): > 100 µM; TGI (MCF7 breast): > 100 µM; TGI (MDA-MB-231 breast): > 100 µM; TGI (MDA-MB-435): > 100 µM; TGI (MDA-N): > 100 µM; TGI (MOLT-4 leukemia): > 100 µM; TGI (NCI-H226 lung): > 100 µM; TGI (NCI-H460 lung): > 100 µM; TGI (NCI-H522 lung): > 100 µM; TGI (NCI/ADR-RES ovarian): > 100 µM; TGI (OVCAR-3 ovarian): > 100 µM; TGI (OVCAR-4 ovarian): > 100 µM; TGI (OVCAR-5 ovarian): > 100 µM; TGI (OVCAR-8 ovarian): > 100 µM; TGI (PC-3 prostate): > 100 µM; TGI (RXF 393 renal): > 100 µM; TGI (SF-268 CNS): > 100 µM; TGI (SF-295 CNS): > 100 µM; TGI (SF-539 CNS): > 100 µM; TGI (SK-MEL-2 melanoma): > 100 µM; TGI (SK-MEL-28 melanoma): > 100 µM; TGI (SK-MEL-5 melanoma): > 100 µM; TGI (SK-OV-3 ovarian): > 100 µM; TGI (SN12C renal): > 100 µM; TGI (SNB-19 CNS): > 100 µM; TGI (SNB-75 CNS): > 100 µM; TGI (SR leukemia): > 100 µM; TGI (SW-620 colon): > 100 µM; TGI (T-47D breast): > 100 µM; TGI (U251 CNS): > 100 µM
